Measurements as given in publication PMC7221760, “Structural and Functional Characterization of NadR from Lactococcus lactis” (Molecules, 2020).

Assays:
NadRLl [1] = target: T1, NadRLl (Lactococcus lactis, UniProt Q9CE60); assay: isothermal titration calorimetry; type: binding; details: read-out: Dissociation Constant-KD
T1 construct: gene nadR; NMNAT domain residues 8-177, RNK domain residues 178-379
T1 sequence (Q9CE60 1-379): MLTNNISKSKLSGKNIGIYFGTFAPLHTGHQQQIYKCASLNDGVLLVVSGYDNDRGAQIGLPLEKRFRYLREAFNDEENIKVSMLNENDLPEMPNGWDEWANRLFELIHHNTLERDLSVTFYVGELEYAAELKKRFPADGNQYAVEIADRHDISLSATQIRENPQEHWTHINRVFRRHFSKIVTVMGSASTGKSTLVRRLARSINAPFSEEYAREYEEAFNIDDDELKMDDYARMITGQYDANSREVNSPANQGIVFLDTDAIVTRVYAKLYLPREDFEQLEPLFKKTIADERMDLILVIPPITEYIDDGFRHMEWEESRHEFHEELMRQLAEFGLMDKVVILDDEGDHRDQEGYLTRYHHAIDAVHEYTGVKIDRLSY
Description: isothermal titration calorimetry on NadRLl

NadRLl [2] = target: T1, NadRLl; assay: X-ray crystal structure, […] Å; type: binding; details: co-crystallised with 5 mM NAD and 5 mM Mg-AMP-PNP, not the active sites
NadRLl [3] = target: T1, NadRLl; assay: LDH-coupled NADH absorbance at […] nm (NMN to NAD); type: biochemical; details: substrate inhibition; 10 mM Mg-ATP; 100 mM Tris/HCl pH 7.5; 25 °C
NadRLl [4] = target: T1, NadRLl; assay: X-ray crystal structure, […] Å; type: binding; details: 5 mM NMN, pH 6.5; site between the two domains, not the active sites
NadRLl [5] = target: T1, NadRLl; assay: LDH-coupled NADH absorbance at […] nm (NR to NAD); type: biochemical; details: substrate inhibition; 10 mM Mg-ATP; 100 mM Tris/HCl pH 7.5; 25 °C
NadRLl [6] = target: T1, NadRLl; assay: X-ray crystal structure, […] Å; type: binding; details: 5 mM NR, pH 6.5; site between the two domains, not the active sites
purified protein [7] = substrate: NC(=O)c1ccc[n+]([C@@H]2O[C@H](CO)[C@@H](O)[C@H]2O)c1; assay: purified protein; type: biochemical, Lactococcus lactis; details: 10 mM Mg-ATP, 100 mM Tris/HCl pH 7.5, 25 °C, substrate-inhibition model
purified protein [8] = substrate: Nc1ncnc2c1ncn2[C@@H]1O[C@H](COP(=O)(O)OP(=O)(O)OP(=O)(O)O)[C@@H](O)[C@H]1O; assay: purified protein; type: biochemical, Lactococcus lactis; details: 1 mM NMN, 100 mM Tris/HCl pH 7.5, 25 °C, Mg-ATP, Hill coefficient 2.2 ± 0.3
purified protein [9] = substrate: NC(=O)c1ccc[n+]([C@@H]2O[C@H](COP(=O)([O-])O)[C@@H](O)[C@H]2O)c1; assay: purified protein; type: biochemical, Lactococcus lactis; details: 10 mM Mg-ATP, 100 mM Tris/HCl pH 7.5, 25 °C, substrate-inhibition model

**Q.** With `Nc1ncnc2c1ncn2[C@@H]1O[C@H](COP(=O)(O)OP(=O)(O)NP(=O)(O)O)[C@@H](O)[C@H]1O` [AMP-PNP] as the molecule, how does the Kd (NadRLl [1]) read?
**A.** 13 ± 1 µM

**Q.** And the “X-ray crystal structure, 3.00 Å” value (NadRLl [2]; mixture with NAD at site between the two domains)?
**A.** we observed a mixture of NAD and AMP-PNP bound at this location

**Q.** Which Kd (NadRLl [1]) does the source give for `Nc1ncnc2c1ncn2[C@@H]1O[C@H](COP(=O)(O)OP(=O)(O)OP(=O)(O)O)[C@@H](O)[C@H]1O` [ATP] here?
**A.** 63 ± 1 µM

**Q.** `NC(=O)c1ccc[n+]([C@@H]2O[C@H](COP(=O)(O)OP(=O)(O)OC[C@H]3O[C@@H](n4cnc5c(N)ncnc54)[C@H](O)[C@@H]3O)[C@@H](O)[C@H]2O)c1` [NAD] was tested. Which “X-ray crystal structure, 3.00 Å” value (NadRLl [2]; mixture with AMP-PNP at site between the two domains) did it give?
**A.** we observed a mixture of NAD and AMP-PNP bound at this location

**Q.** For `NC(=O)c1ccc[n+]([C@@H]2O[C@H](COP(=O)([O-])O)[C@@H](O)[C@H]2O)c1` [nicotinamide mononucleotide], which “Ki” value (NadRLl [3]) is on record?
**A.** 25400 ± 10800 µM

**Q.** And the “X-ray crystal structure, 2.70 Å” value (NadRLl [4])?
**A.** we obtained structures in the presence of NMN and NR, which both have bound substrates

**Q.** `NC(=O)c1ccc[n+]([C@@H]2O[C@H](CO)[C@@H](O)[C@H]2O)c1` [nicotinamide riboside] was tested. Which “Ki” value (NadRLl [5]) did it give?
**A.** 31400 ± 8100 µM

**Q.** And the “X-ray crystal structure, 2.30 Å” value (NadRLl [6])?
**A.** we obtained structures in the presence of NMN and NR, which both have bound substrates

B1: NadRLl (Lactococcus lactis subsp. lactis Il1403) (protein)
chain: T1 sequence (Q9CE60 1-379)
notes: NMNAT domain residues 8-177, RNK domain residues 178-379
**Q.** For B1, which Km (purified protein [7]) is on record?
**A.** 600 ± 100 µM

**Q.** And the Vmax (purified protein [7])?
**A.** 0.4 µmol/min/mg

**Q.** What about the K0.5 (purified protein [8]) of the same molecule?
**A.** 5.2 ± 0.6 mM

**Q.** And the Vmax (purified protein [8])?
**A.** 1.2 µmol/min/mg

**Q.** What about the Km (purified protein [9]) of the same molecule?
**A.** 500 ± 100 µM

**Q.** What about the Vmax (purified protein [9]) of the same molecule?
**A.** 1.5 µmol/min/mg
